# In patent US10975068B2, “6-aminopyridin-3-yl thiazoles as modulators of RORγT” (Janssen Pharmaceutica NV, priority 2016, dated 2021):
# Where two headings read alike, the source gives them in different places.
# Tests used:
# full-length human RORγt = full-length human RORγt (Homo sapiens (Human), UniProt P51449); test: RORγt (full-length human) reporter assay, Conditions B or C; assay type: cell-based; details: for inhibition at 3 µM: at 3 μM compound concentration; for RORγt (FL) Reporter Assay B or C, % inhibition (value marked *): marked *: footnote not given; for RORγt (FL) Reporter Assay B or C, % inhibition (value marked ***): marked ***: footnote not given
# Chain of full-length human RORγt (P51449 other isoform, or with tags, fused parts or gaps): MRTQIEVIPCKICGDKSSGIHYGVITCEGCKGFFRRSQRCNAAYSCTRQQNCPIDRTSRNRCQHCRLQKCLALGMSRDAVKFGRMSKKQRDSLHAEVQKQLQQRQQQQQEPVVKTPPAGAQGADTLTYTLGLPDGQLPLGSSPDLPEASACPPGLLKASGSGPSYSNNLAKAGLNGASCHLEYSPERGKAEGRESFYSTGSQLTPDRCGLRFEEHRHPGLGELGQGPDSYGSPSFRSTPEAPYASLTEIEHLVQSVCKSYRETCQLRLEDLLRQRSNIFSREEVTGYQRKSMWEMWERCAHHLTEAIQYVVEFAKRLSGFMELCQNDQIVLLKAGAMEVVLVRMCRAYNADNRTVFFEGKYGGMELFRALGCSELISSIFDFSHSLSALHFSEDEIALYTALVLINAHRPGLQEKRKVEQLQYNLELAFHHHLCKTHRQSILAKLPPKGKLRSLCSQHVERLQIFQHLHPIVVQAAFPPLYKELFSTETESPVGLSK
# Method in brief: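 HEK293T cells transiently co-transfected with GAL4-DBD–full-length human RORγt (nt 142-1635, NM_001001523.1) plus GAL4-firefly and CMV-Renilla luciferase reporters; compounds added 4-6 h post-transfection for 16-20 h in 1.3% FBS, 0.1% DMSO. Firefly signal normalized to DMSO and saturating reference compound, then to Renilla; IC50 from concentration plots.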
# [1] = target: human RORγt ligand binding domain (RORγt LBD) (Homo sapiens (Human), UniProt P51449); test: RORγt ThermoFluor® assay (thermal shift binding)
# Chain of human RORγt ligand binding domain (RORγt LBD) (P51449 other isoform, or with tags, fused parts or gaps): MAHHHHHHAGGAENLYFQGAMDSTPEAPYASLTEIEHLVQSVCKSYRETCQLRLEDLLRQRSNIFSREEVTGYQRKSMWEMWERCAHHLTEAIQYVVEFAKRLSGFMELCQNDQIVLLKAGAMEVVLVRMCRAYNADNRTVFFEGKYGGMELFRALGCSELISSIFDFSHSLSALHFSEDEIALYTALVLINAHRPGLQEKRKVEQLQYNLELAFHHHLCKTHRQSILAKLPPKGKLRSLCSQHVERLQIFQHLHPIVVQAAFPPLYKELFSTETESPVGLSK
# Method in brief: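 His-tagged human RORγt LBD (0.065 mg/mL) with 60 μM 1,8-ANS in 100 mM Hepes pH 7.0, 10 mM NaCl, 2.5 mM GSH, 0.002% Tween-20 was heated at 1 °C/min.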
# [2] = read-out: RORγt (FL) Reporter Assay B or C, % inhibition
# [3] = read-out: RORγt (FL) Reporter Assay B or C, IC50
# [4] = read-out: ThermoFluor® Assay, Kd
# [5] = Conditions B or C, read-out: RORγt (FL) Reporter Assay B or C, IC50
# [6] = RORγt (FL) Reporter Assay B or C, IC50
Structure (SMILES),inhibition at 3 µM (full-length human RORγt; [2]) [%],IC50 (full-length human RORγt; [3]) [µM],"Kd [1, 4] [µM]","RORγt (FL) Reporter Assay B or C, % inhibition (value marked *) (full-length human RORγt; Conditions B or C)",IC50 (full-length human RORγt; [5]) [µM],other results
"[2H]C([2H])([2H])C(O)(CNC(=O)c1nc(C(=O)N2CCC[C@@H]2C)c(-c2cnc(NC(C)(C)C)cc2C(F)(F)F)s1)C([2H])([2H])[2H] [Example 180, (S)-5-(6-(tert-Butylamino)-4-(trifluoromethyl)pyridine-3-yl)-N-(2-hydroxy-2-(methyl-d3)propyl-3,3,3-d3)-4-(2-methylpyrrolidine-1-carbonyl)thiazole-2-carboxamide]",–,–,0.0018,113* %,0.02,–
"CC[C@@H](CO)NC(=O)c1nc(C(=O)N2CCC[C@@H]2C)c(-c2cnc(N[C@@H](C)C(F)(F)F)cc2C(F)F)s1 [Example 407, 5-[4-(Difluoromethyl)-6-[[(1S)-2,2,2-trifluoro-1-methyl-ethyl]amino]-3-pyridyl]-N-[(1S)-1-(hydroxymethyl)propyl]-4-[(2S)-2-methylpyrrolidine-1-carbonyl]thiazole-2-carboxamide]",100,0.12,0.015,–,–,–
CC[C@H](Nc1cc(C(F)F)c(-c2sc(C(=O)NC3CCS(=O)(=O)CC3)nc2C(=O)N2C3CCC2CC3)cn1)C(F)(F)F [Example 154],–,–,0.001,99* %,0.098,–
CC[C@H](Nc1cc(C(F)(F)F)c(-c2sc(C(=O)NCC(C)(C)O)nc2C(=O)N2C3CCC2CC3)cn1)C1CC1 (stereo in doubt) [Example 130],–,–,–,–,–,"RORγt (FL) Reporter Assay B or C, % inhibition (value marked ***) (full-length human RORγt; Conditions B or C): 98*** %; IC50 (full-length human RORγt; RORγt (FL) Reporter Assay B or C, IC50 (μM), Conditions B or C): 0.03 µM; Kd ([1]; ThermoFluor® Assay, Kd (μM)): 0.0016 µM"
"CC[C@H](Nc1cc(C(F)F)c(-c2sc(C(=O)N3CC4CC(C3)O4)nc2C(=O)N2CCC[C@@H]2C)cn1)C(F)(F)F [Example 392, [5-[4-(Difluoromethyl)-6-[[(1S)-1-(trifluoromethyl)propyl]amino]-3-pyridyl]-2-(6-oxa-3-azabicyclo[3.1.1]heptane-3-carbonyl)thiazol-4-yl]-[(2S)-2-methylpyrrolidin-1-yl]methanone]",102,0.13,0.044,–,–,–
"C[C@H](Nc1cc(C(F)(F)F)c(-c2sc(C(=O)N[C@H](C)C(C)(C)O)nc2C(=O)N2CC(F)(F)C[C@@H]2C)cn1)C1CC1 [Example 203, 5-(6-(((S)-1-Cyclopropylethyl)amino)-4-(trifluoromethyl)pyridine-3-yl)-4-((S)-4,4-difluoro-2-methylpyrrolidine-1-carbonyl)-N—((R)-3-hydroxy-3-methylbutan-2-yl)thiazole-2-carboxamide]",–,–,0.0015,97* %,0.042,–
"O=C(N[C@@H]1CC[C@@H](O)C1)c1nc(C(=O)N2C3CCC2CC3)c(-c2cnc(N[C@@H](C3CC3)C(F)(F)F)cc2C(F)F)s1 [Example 437, 4-((1s,4s)-7-Azabicyclo[2.2.1]heptane-7-carbonyl)-5-[6-[[(1S)-1-cyclopropyl-2,2,2-trifluoro-ethyl]amino]-4-(difluoromethyl)-3-pyridyl]-N-[(1R,3R)-3-hydroxycyclopentyl]thiazole-2-carboxamide]",90,–,0.00044,–,–,IC50 (full-length human RORγt; [6]): 0.016 µM
C[C@H](Nc1cc(C(F)F)c(-c2sc(C(=O)N3CC(S(C)(=O)=O)C3)nc2C(=O)N2CCC[C@@H]2C)cn1)C(F)(F)F [Example 450],106,0.23,0.05,–,–,–
"C[C@H]1CC(F)(F)CN1C(=O)c1nc(C(=O)N[C@H](C)C(C)(C)O)sc1-c1cnc(NC(C)(C)C)cc1C(F)F [Example 256, 5-[6-(tert-Butylamino)-4-(difluoromethyl)-3-pyridyl]-4-[(2S)-4,4-difluoro-2-methyl-pyrrolidine-1-carbonyl]-N-[(1R)-2-hydroxy-1,2-dimethyl-propyl]thiazole-2-carboxamide]",123,0.02,0.0017,–,–,–
"C[C@H]1CCCN1C(=O)c1nc(C(=O)NCC(C)(O)C(F)(F)F)sc1-c1cnc(NC(C)(C)C)cc1C(F)(F)F (single isomer, unassigned) [Example 358, 5-(6-(tert-Butylamino)-4-(trifluoromethyl)pyridin-3-yl)-4-((S)-2-methylpyrrolidine-1-carbonyl)-N—((S*)-3,3,3-trifluoro-2-hydroxy-2-methylpropyl)thiazole-2-carboxamide]",119,0.015,0.0025,–,–,–
"C[C@H]1CC(F)(F)CN1C(=O)c1nc(C(=O)NCC(C)(C)O)sc1-c1cnc(NCC(C)(C)C)cc1C(F)(F)F [Example 85, (S)-4-(4,4-Difluoro-2-methylpyrrolidine-1-carbonyl)-N-(2-hydroxy-2-methylpropyl)-5-(6-(neopentylamino)-4-(trifluoromethyl)pyridin-3-yl)thiazole-2-carboxamide]",–,–,0.00053,–,0.027,"RORγt (FL) Reporter Assay B or C, % inhibition (value marked ***) (full-length human RORγt; Conditions B or C): 128*** %"
"C[C@H](Nc1cc(C(F)F)c(-c2sc(C(=O)N[C@H]3C[C@H](O)C3)nc2C(=O)N2C3CCC2CC3)cn1)C(F)(F)F [Example 221, 4-((1s,4s)-7-Azabicyclo[2.2.1]heptane-7-carbonyl)-5-(4-(difluoromethyl)-6-(((1S)-2,2,2-trifluoro-1-methyl-ethyl)amino)-3-pyridyl)-N-((1r,3S)-3-hydroxycyclobutyl)thiazole-2-carboxamide]",–,–,0.027,103* %,0.078,–
"C[C@H](Nc1cc(C(F)(F)F)c(-c2sc(C(=O)N[C@H]3COC[C@H]3O)nc2C(=O)N2C3CCC2CC3)cn1)C(F)(F)F (single isomer, unassigned) [Example 255, 4-((1s,4s)-7-Azabicyclo[2.2.1]heptane-7-carbonyl)-N-((3S*,4S*)-4-hydroxytetrahydrofuran-3-yl)-5-(4-(trifluoromethyl)-6-(((S)-1,1,1-trifluoropropan-2-yl)amino)pyridin-3-yl)thiazole-2-carboxamide]",–,–,–,–,–,"IC50 (full-length human RORγt; [6]): 0.16 µM; inhibition at 1 µM (full-length human RORγt; at 1 μM compound concentration, read-out: RORγt (FL) Reporter Assay B or C, % inhibition): 78%; Kd ([1]; ThermoFluor® Assay, Kd): 0.016 µM"

# Continued, in another order:
inhibition at 3 µM (full-length human RORγt; [2]) [%],IC50 (full-length human RORγt; [3]) [µM],"Kd [1, 4] [µM]","RORγt (FL) Reporter Assay B or C, % inhibition (value marked *) (full-length human RORγt; Conditions B or C)",IC50 (full-length human RORγt; [5]) [µM],Structure (SMILES),other results
94,0.035,0.047,–,–,"C[C@H]1CCCN1C(=O)c1nc(C(=O)NC2CN(C)C2)sc1-c1cnc(NC(C)(C)C)cc1C(F)(F)F [Example 356, 5-[6-(tert-Butylamino)-4-(trifluoromethyl)-3-pyridyl]-N-(1-methylazetidin-3-yl)-4-[(2S)-2-methylpyrrolidine-1-carbonyl]thiazole-2-carboxamide]",–
99,0.014,0.002,–,–,"C[C@H]1CC(F)(F)CN1C(=O)c1nc(C(=O)NCC(C)(C)O)sc1-c1cnc(NCC2(C(F)(F)F)CC2)cc1C(F)F [Example 275, 4-[(2S)-4,4-Difluoro-2-methyl-pyrrolidine-1-carbonyl]-5-[4-(difluoromethyl)-6-[[1-(trifluoromethyl)cyclopropyl]methylamino]-3-pyridyl]-N-(2-hydroxy-2-methyl-propyl)thiazole-2-carboxamide]",–
–,–,0.0019,105* %,0.013,"C[C@H]1CCCN1C(=O)c1nc(C(=O)NCC(C)(C)O)sc1-c1cnc(NC2(C(F)(F)F)CCC2)cc1C(F)F [Example 123, (S)-5-(4-(Difluoromethyl)-6-((1-(trifluoromethyl)cyclobutyl)amino)pyridin-3-yl)-N-(2-hydroxy-2-methylpropyl)-4-(2-methylpyrrolidine-1-carbonyl)thiazole-2-carboxamide]",–
–,–,0.00079,117* %,0.022,"C[C@H]1CC(F)(F)CN1C(=O)c1nc(C(=O)NCC(C)(C)O)sc1-c1cnc(NC(C)(C)C2CC2)cc1C(F)F [Example 106, (S)-5-(6-((2-Cyclopropylpropan-2-yl)amino)-4-(difluoromethyl)pyridin-3-yl)-4-(4,4-difluoro-2-methylpyrrolidine-1-carbonyl)-N-(2-hydroxy-2-methylpropyl)thiazole-2-carboxamide]",–
106,0.035,0.0012,–,–,"CC[C@H](Nc1cc(C(F)F)c(-c2sc(C(=O)NC3CCCC3O)nc2C(=O)N2CCC[C@@H]2C)cn1)C(F)(F)F (stereo partly drawn) [Example 252, 5-(4-(Difluoromethyl)-6-(((S)-1,1,1-trifluorobutan-2-yl)amino)pyridin-3-yl)-N-(cis-2-hydroxycyclopentyl)-4-((S)-2-methylpyrrolidine-1-carbonyl)thiazole-2-carboxamide]",–
–,–,0.0054,105* %,0.019,"CC[C@H](Nc1cc(C(F)F)c(-c2sc(C(=O)N[C@H]3COC[C@@H]3O)nc2C(=O)N2CCC[C@@H]2C)cn1)C(F)(F)F [Example 239, 5-[4-(Difluoromethyl)-6-[[(1S)-1-(trifluoromethyl)propyl]amino]-3-pyridyl]-N-[(3S,4R)-4-hydroxytetrahydrofuran-3-yl]-4-[(2S)-2-methylpyrrolidine-1-carbonyl]thiazole-2-carboxamide]",–
96,0.021,0.0011,–,–,"C[C@H]1CCCN1C(=O)c1nc(C(=O)N[C@H]2CCC[C@@H]2O)sc1-c1cnc(NC(C)(C)C)cc1C(F)F [Example 396, 5-[6-(tert-Butylamino)-4-(difluoromethyl)-3-pyridyl]-N-[(1S,2S)-2-hydroxycyclopentyl]-4-[(2S)-2-methylpyrrolidine-1-carbonyl]thiazole-2-carboxamide]",–
